Test results as given in US20210308034A1, “PREBIOTIC COMPOSITIONS AND METHODS FOR MAINTAINING A HEALTHY SKIN MICROBIOTA” (KIMBERLY-CLARK WORLDWIDE, INC., priority 2018, published 2021).

What was measured:
Assay type in all cases: cell-based
[1] = tested on: Staphylococcus epidermidis (ATCC 14990); assay: Carbohydrate Screening Test Method (Biolog phenotype microarray), Bacteria Code I; settings: Commensal; carbon microarray plate, OD 600 nm, 36 hr, 33° C.; positive = more than 0.05 OD units above zero; blank cell = not utilized
From the text: (§1) After creating desired ratios of various commensal skin bacteria in a healthy skin microbiome, 188 different carbohydrate sources were screened as the next step in determining potential prospects for skin microbiota balancing agents. The screening process was set up to determine which carbohydrate sources promoted commensal and/or pathogenic bacteria as well as to obtain individual and combinations of carbohydrate sources that could serve as microbiota balancing agents that can support or maintain the healthy proportions of commensal skin bacteria of Corynebacterium, Staphylococcus, and Micrococcus. The screening was conducted utilizing Biolog phenotype microarray plates (Hayward, Calif.). Table 1 provides a coded list of the commensal and pathogenic skin bacteria that the carbohydrates were screened against.
(§2) Table 2 provides the results of screening various carbohydrate sources against the commensal and pathogenic bacteria codes listed in Table 1. The Bacteria Codes B, D, E, I, and J are commensal bacteria and are shaded in Table 2 for references purposes. The bacteria codes were each placed in a carbon microarray plate and screened through the Carbohydrate Screening Test Method, as described in the Test Methods section herein. If a particular bacteria code utilized a specific carbohydrate source as described in the Carbohydrate Screening Test Method, then the corresponding cell in Table 2 was marked with a Y (short for “Yes”). […] Many of the carbohydrate sources were utilized by both commensal and pathogenic bacteria, and as such, would not provide an advantage for selective growth of the commensal bacteria. However, some of the carbohydrate sources were only used by commensal bacteria and were identified for further testing as described herein.
(§3) The study employed 10 representative skin bacteria; Staphylococcus epidermidis ATCC 14990, Staphylococcus epidermidis M23864:W2, Staphylococcus aureus ATCC 6538, Staphylococcus aureus ATCC 25904 (Newman), Pseudomonas aeruginosa ATCC 9027, Micrococcus luteus ATCC […], Micrococcus luteus SK58, Klebsiella pneumoniae ATCC BAA-2146, Corynebacterium amycolatum SK46, and Corynebacterium minutissimum ATCC 23348. Cultures were started from freezer bead stocks by placing a single bead into 20 mL of tryptic soy broth (TSB) for all organisms except C. amycolatum SK46 and C. minutissimum ATCC 23348, which were placed into brain heart infusion (BHI) broth. Cultures were grown for about 24 hr at 37° C. except M. luteus ATCC 49732 and M. luteus SK58, which were grown at 30° C. A passage of the culture was made using a sterile swab and streaked onto two M9*2 agar plates to prepare the incubated culture for the phenotype microarray pate according to Table 4. Plates were incubated for about 24 hr at 37° C. except for M. luteus ATCC 49732 and M. luteus SK58, which were incubated at 30° C. for 24 hr.
(§4) All cultures were harvested and washed before inoculation into the carbon microarray plate (BiOLOG, Hayward Calif.), with Biolog Plates PM1 and PM2 each having a source definition of Carbon. The bacteria on the M9*2 agar was suspended via agitation with an inoculating loop in 1 mL of M9*1 media for collection in a 1.7 mL micro centrifuge tube, as noted in Table 4. The bacteria was suspended again in M9*1 media, agitated, and collected into the same 1.7 mL microcentrifuge tube used in the previous step. The tube was centrifuged for 5 minutes at 4,000×G, supernatant decanted, the pellet was resuspended in 1 mL of M9*1 media, and vortex. This washing process was repeated for a total of 4 times.
(§5) A tenfold dilution in M9*1 media was performed using 1 mL of the washed bacterial culture. Of the tenfold dilution 200 μL was placed in an untreated 96-well plate (Falcon, Pasadena Tx.) for an initial optical density (OD) reading at a wavelength of 600 nm. The OD was used to correlate to colony forming units (CFU) per milliliter by using linear regression lines for each organism. […]

[2] = tested on: Micrococcus luteus (SK58); assay: Carbohydrate Screening Test Method (Biolog phenotype microarray), Bacteria Code E; settings: Commensal; carbon microarray plate, OD 600 nm, 36 hr, 33° C.; positive = more than 0.05 OD units above zero; blank cell = not utilized
Summary of the method: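 Each commensal strain grown in Biolog carbon phenotype microarray plates with single carbohydrate sources. Growth curves fitted with GrowthRates 2.1 to give growth rate and maximum yield. Max yields used to calculate predicted co-culture ratios between Corynebacterium, Staphylococcus and Micrococcus, compared with desired ratios of 1.3, 1.4 and 1.1.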

[3] = tested on: Staphylococcus epidermidis (M23864:W2); assay: Carbohydrate Screening Test Method (Biolog phenotype microarray), Bacteria Code J; settings: Commensal; carbon microarray plate, OD 600 nm, 36 hr, 33° C.; positive = more than 0.05 OD units above zero; blank cell = not utilized
From the text: as §1
The Bacteria Codes B, D, E, I, and J are commensal bacteria and are shaded in Table 2 for references purposes. The bacteria codes were each placed in a carbon microarray plate and screened through the Carbohydrate Screening Test Method, as described in the Test Methods section herein. If a particular bacteria code utilized a specific carbohydrate source as described in the Carbohydrate Screening Test Method, then the corresponding cell in Table 2 was marked with a Y (short for “Yes”).
To do so, the respective microarray data for the 79 carbohydrate sources was run through the GrowthRates 2.1 program to obtain growth parameters, such as growth rates and maximum yield data as described by the Belingham Research Institute, Hall, B. G., H. Acar and M. Barlow. 2014 Growth Rates Made Easy. Mol. Biol. Evol. 31:232-238 doi:10.1093/molbev/mst197. The max yield parameters generated were utilized to calculate ratios of tested commensal bacteria. The ratios calculated were compared back to the desired ratios identified above (Corynebacterium to Staphylococcus of 1.3, Corynebacterium to Micrococcus of 1.4, and Staphylococcus to Micrococcus of 1.1).
As an example of this methodology used to calculate the commensal bacteria ratios and the difference between the calculated ratios and the desired ratios, an example code from Table 3 will be described. […] The max yields were then used to calculate ratios the bacteria would reach in a co-culture.

[4] = tested on: Corynebacterium jeikum (ATCC 33033); assay: Carbohydrate Screening Test Method (Biolog phenotype microarray), Bacteria Code B; settings: Commensal; carbon microarray plate, OD 600 nm, 36 hr, 33° C.; positive = more than 0.05 OD units above zero; blank cell = not utilized
Summary of the method: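 Strain from M9*2 agar was suspended in M9*1 medium, washed and inoculated into Biolog PM1/PM2 carbon plates. Carbohydrate use was scored yes/no, and growth rate and maximum yield were derived with GrowthRates 2.1, with max yields used for commensal ratios.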

[5] = tested on: Micrococcus luteus (ATCC 49732); assay: Carbohydrate Screening Test Method (Biolog phenotype microarray), Bacteria Code D; settings: Commensal; carbon microarray plate, OD 600 nm, 36 hr, 33° C.; positive = more than 0.05 OD units above zero; blank cell = not utilized
From the text: as §1, §2, §3, §4, §5

[6] = tested on: Pseudomonas aeruginosa (ATCC 9027); settings: Pathogenic; carbon microarray plate, OD 600 nm, 36 hr, 33° C.; positive = more than 0.05 OD units above zero; blank cell = not utilized
Summary of the method: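 Carbon-source utilisation screen on Biolog PM1/PM2 plates: strain grown in TSB then on M9*2 agar, each ~24 h at 37 °C, washed four times in M9*1 and diluted tenfold. OD600 correlated to CFU/mL; each carbohydrate scored Yes when utilised.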

[7] = tested on: Klebsiella pneumoniae (ATCC BAA-2146); settings: Pathogenic; carbon microarray plate, OD 600 nm, 36 hr, 33° C.; positive = more than 0.05 OD units above zero; blank cell = not utilized

Molecule | Carbohydrate Screening Results, Bacteria Code I [1] | Carbohydrate Screening Results, Bacteria Code J [3] | Carbohydrate Screening Results, Bacteria Code D [5] | further results
OC[C@H]1O[C@@H](O[C@@H]2[C@@H](CO)OC(O)(CO)[C@H]2O)[C@H](O)[C@@H](O)[C@H]1O (mixture of isomers) [Lactulose] | Y | Y |  | Carbohydrate Screening Results, Bacteria Code E [2]: Y; Carbohydrate Screening Results, Bacteria Code B [4]: Y
O=C(O)CC(O)C(=O)O (racemic) [D,L-Malic Acid] | Y | Y |  | Carbohydrate Screening Results, Bacteria Code E [2]: Y; Carbohydrate Screening Results, Bacteria Code B [4]: Y
NCCO [2-Aminoethanol] |  |  | Y | Carbohydrate Screening Results, Bacteria Code E [2]: Y; Carbohydrate Screening Results, Bacteria Code B [4]: Y
CC(=O)C(C)O (stereo not drawn) [3-Hydroxy 2-Butanone] | Y | Y |  | 
O=C(O)c1ccc(O)cc1 [4-Hydroxy Benzoic Acid] |  |  | Y | 
O=C[C@@H](O)[C@H](O)[C@H](O)CO [D-Arabinose] |  |  | Y | 
O=C[C@H](O)[C@@H](O)[C@@H](O)[C@H](O)C(=O)O [D-Galacturonic Acid] |  |  | Y | Carbohydrate Screening Results, Bacteria Code E [2]: Y; Carbohydrate Screening Results, Bacteria Code B [4]: Y
O=C1O[C@H](CO)[C@@H](O)[C@H]1O [D-Ribono-1,4-Lactone] |  |  | Y | 
N=C(N)NCCC[C@H](N)C(=O)O [L-Arginine] |  |  | Y | Carbohydrate Screening Results, Bacteria Code F [6]: Y
CC(C)C[C@H](N)C(=O)O [L-Leucine] |  |  | Y | 
N[C@@H](CO)C(=O)O [L-Serine] | Y | Y |  | Carbohydrate Screening Results, Bacteria Code E [2]: Y; Carbohydrate Screening Results, Bacteria Code B [4]: Y
OC[C@@H](O)[C@@H](O[C@@H]1O[C@H](CO)[C@H](O)[C@H](O)[C@H]1O)[C@H](O)[C@@H](O)CO [Lactitol] | Y | Y |  | Carbohydrate Screening Results, Bacteria Code C [7]: Y
COC(=O)C(C)=O [Methyl Pyruvate] | Y | Y |  | Carbohydrate Screening Results, Bacteria Code B [4]: Y
CC(=O)N[C@H]1C(O)O[C@H](CO)[C@H](O)[C@@H]1O (stereo partly drawn) [N-Acetyl-D-Galactosamine] |  |  | Y | 
CC(=O)N[C@@H](CCC(=O)O)C(=O)O [N-Acetyl-L-Glutamic Acid] |  |  | Y | Carbohydrate Screening Results, Bacteria Code F [6]: Y
O=C(O)C(=O)O [Oxalic Acid] | Y | Y |  | 
OC[C@H]1O[C@H](OC[C@H]2OC(O)(CO)[C@@H](O)[C@@H]2O)[C@H](O)[C@@H](O)[C@@H]1O (stereo partly drawn) [Palatinose] | Y | Y |  | Carbohydrate Screening Results, Bacteria Code C [7]: Y; Carbohydrate Screening Results, Bacteria Code F [6]: Y
NCCCCN [Putrescine] | Y | Y |  | Carbohydrate Screening Results, Bacteria Code C [7]: Y
O=C(O)CCCCCCCCC(=O)O [Sebacic Acid] | Y | Y |  | 
O=c1ccn([C@@H]2O[C@H](CO)[C@@H](O)[C@H]2O)c(=O)[nH]1 [Uridine] |  |  | Y | Carbohydrate Screening Results, Bacteria Code C [7]: Y; Carbohydrate Screening Results, Bacteria Code B [4]: Y
OC[C@H]1O[C@@H]2O[C@H]3[C@H](O)[C@@H](O)[C@@H](O[C@H]4[C@H](O)[C@@H](O)[C@@H](O[C@H]5[C@H](O)[C@@H](O)[C@@H](O[C@H]6[C@H](O)[C@@H](O)[C@@H](O[C@H]7[C@H](O)[C@@H](O)[C@@H](O[C@H]1[C@H](O)[C@H]2O)O[C@@H]7CO)O[C@@H]6CO)O[C@@H]5CO)O[C@@H]4CO)O[C@@H]3CO [α-Cyclodextrin] | Y | Y |  | 
OC[C@H]1O[C@@H](O[C@H]2[C@H](O)[C@@H](O)[C@@H](O)O[C@@H]2CO)[C@H](O)[C@@H](O)[C@H]1O [α-D-Lactose] | Y | Y |  | Carbohydrate Screening Results, Bacteria Code E [2]: Y; Carbohydrate Screening Results, Bacteria Code B [4]: Y
COC1OC(CO)C(O)C(O)C1O [α-Methyl-D-Mannoside] |  |  | Y | 
NCCCC(=O)O [γ-Amino Butyric Acid] | Y | Y |  | 
Chondroitin Sulfate C |  |  | Y | 
Inulin | Y | Y |  | 
Pectin | Y | Y |  | 
